According to patent publication US9827228B2, “Opioid receptor modulators and use thereof” (priority 2015, dated 2017):
Where two headings read alike, the source gives them in different places.

Molecular target: T1, hMOR (Homo sapiens, UniProt P35372)
T1 construct: host or cells: CHO-K1
Test: cell-based
Assay type: cell-based
Settings: for AUC: AUC of [Ca2+]i fluorescence
Protocol: Chinese hamster ovary (CHO)-K1 cells expressing hMOR and Gα15 (CHO-K1/MOR/Gα15) were cultured in F12 medium (GIBCO) supplemented with 10 μg/mL Hygromycin B (Invivogen), 20 μg/mL Zeocin (Invivogen) and P/S/F (100 units/mL penicillin, 100 μg/mL streptomycin, 10% fetal bovine serum). The cultures were incubated at 37° C. in a humidified 5% CO2 incubator.
One day prior to running the assay, CORNING® black 96-well assay plates having a clear flat bottom were coated with a 0.1 mg/mL Poly-L-Lysine solution. CHO-K1/MOR/Gα15 cells were suspended in F12 medium and plated at a density of about 8×10^4 cells/well in 200 μL medium. Cells were incubated under a humidified atmosphere of 10% CO2 at 37° C. overnight to reach an 80-90% confluent cell monolayer before the assay. On the day of the assay, 150 μL medium was removed from each well of the plates. To each well were added FLIPR® calcium assay reagents (Molecular Devices Corporation, Sunnyvale, Calif., USA; 50 μL) dissolved in 1× assay buffer (HBSS: KCl 5 mM, KH2PO4 0.3 mM, NaCl 138 mM, NaHCO3 4 mM, Na2HPO4 0.3 mM, d-glucose 5.6 mM, with additional 20 mM HEPES and […], pH 7.4) and 2.5 mM probenecid. After incubation at 37° C. for 1 hour, a test compound, alone or together with naloxone (a MOR antagonist), was also added to each well. Using a FlexStationlll instrument (Molecular Devices Corp.), increments of the [Ca^2+]i fluorescence after robotic injection of the cell suspension were monitored at 1.52 s intervals using the excitation wavelength of 485 nm and the emission wavelength of 525 nm. The [Ca^2+]i fluorescence was measured up to 90 s after the injection. The fluorescence intensity from 6 to 12 wells of cells were averaged and the relative amount of [Ca^2+]i release was determined by integrating the AUC of the [Ca^2+]i fluorescence averages.
A CHO-K1 cell line expressing MOR and Gα15 (GenScript) was used to set up a sensitive high-throughput screen (HTS) system. […] The HTS was performed in the absence or presence of naloxone (an opioid antagonist; 20 nM), to identify AAMs.

[1] = combined with naloxone, CHO-K1/MOR/Gα15 cells
[2] = combined with naloxone, CHO-K1/MOR/Gα15 cells, read-out: EC50
[3] = EC50, combined with naloxone, CHO-K1/MOR/Gα15 cells

T1 sequence (P35372 whole entry): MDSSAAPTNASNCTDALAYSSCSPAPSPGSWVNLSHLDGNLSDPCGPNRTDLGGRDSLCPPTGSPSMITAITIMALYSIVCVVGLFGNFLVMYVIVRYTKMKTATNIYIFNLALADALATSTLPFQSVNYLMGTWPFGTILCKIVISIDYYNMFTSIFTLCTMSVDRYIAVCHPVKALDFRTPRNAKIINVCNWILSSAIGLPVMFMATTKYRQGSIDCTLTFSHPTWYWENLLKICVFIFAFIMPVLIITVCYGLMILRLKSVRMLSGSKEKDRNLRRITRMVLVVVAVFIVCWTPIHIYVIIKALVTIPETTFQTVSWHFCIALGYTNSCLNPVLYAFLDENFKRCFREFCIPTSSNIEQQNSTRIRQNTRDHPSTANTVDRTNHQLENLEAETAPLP

Compound	AUC [1]	EC50 [2] [µM]	EC50 (EC50, combined with naloxone) [µM]	EC50 [3] [µM]
COc1cccc(C)c1Nc1nc(-c2sc(C)nc2C)cs1 [Compound 4, N-(2-Methoxy-6-methylphenyl)-2′,4′-dimethyl-4,5′-bi-1,3-thiazol-2-amine]	+ (+: >5000)	> 10	–	–
Cc1nc(C)c(-c2csc(Nc3ccccc3Oc3ccccc3)n2)s1 [Compound 6, N-(2-Phenoxyphenyl)-2′,4′-dimethyl-4,5′-bi-1,3-thiazol-2-amine]	− (−: <5000)	> 10	–	–
Cc1nc(C)c(-c2csc(Nc3ccccc3Cl)n2)s1 [Compound 8, N-(2-Chlorophenyl)-2′,4′-dimethyl-4,5′-bi-1,3-thiazol-2-amine]	− (−: <5000)	> 10	–	–
Cc1nc(C)c(-c2csc(Nc3ccccc3F)n2)s1 [Compound 9, N-(2-Fluorophenyl)-2′,4′-dimethyl-4,5′-bi-1,3-thiazol-2-amine]	− (−: <5000)	> 10	–	–
Cc1nc(C)c(-c2csc(Nc3cc(F)ccc3C)n2)s1 [Compound 10, N-(5-Fluoro-2-methylphenyl)-2′,4′-dimethyl-4,5′-bi-1,3-thiazol-2-amine]	− (−: <5000)	> 10	–	–
COc1ccc(C)c(Nc2nc(-c3sc(C)nc3C)cs2)c1 [Compound 12, N-(5-Methoxy-2-methylphenyl)-2′,4′-dimethyl-4,5′-bi-1,3-thiazol-2-amine]	− (−: <5000)	> 10	–	–
COc1ccc(Nc2nc(-c3sc(C)nc3C)cs2)c(OC)c1 [Compound 14, N-(2,4-Dimethoxyphenyl)-2′,4′-dimethyl-4,5′-bi-1,3-thiazol-2-amine]	+ (+: >5000)	> 10	–	–
Cc1nc(C)c(-c2csc(Nc3cc(Cl)ccc3C)n2)s1 [Compound 15, N-(5-Chloro-2-methylphenyl)-2′,4′-dimethyl-4,5′-bi-1,3-thiazol-2-amine]	− (−: <5000)	> 10	–	–
Cc1cc(C)c(Nc2nc(-c3sc(C)nc3C)cs2)c(C)c1 [Compound 17, 2′,4′-Dimethyl-N-(2,4,6-trimethylphenyl)-4,5′-bi-1,3-thiazol-2-amine]	+ (+: >5000)	–	< 10	3 to 10
Cc1nc(C)c(-c2csc(Nc3cc(Br)ccc3C)n2)s1 [Compound 19, N-(5-Bromo-2-methylphenyl)-2′,4′-dimethyl-4,5′-bi-1,3-thiazol-2-amine]	− (−: <5000)	> 10	–	–
Cc1nc(C)c(-c2csc(Nc3cccc(F)c3C)n2)s1 [Compound 21, N-(3-Fluoro-2-methylphenyl)-2′,4′-dimethyl-4,5′-bi-1,3-thiazol-2-amine]	+ (+: >5000)	> 10	–	–
Cc1nc(C)c(-c2csc(Nc3c(C(C)C)cccc3C(C)C)n2)s1 [Compound 23, N-(2,6-Diisopropylphenyl)-2′,4′-dimethyl-4,5′-bi-1,3-thiazol-2-amine]	− (−: <5000)	> 10	–	–
Cc1ccc(C)c(Nc2nc(-c3sc(C)nc3C)cs2)c1 [Compound 25, N-(2,5-Dimethylphenyl)-2′,4′-dimethyl-4,5′-bi-1,3-thiazol-2-amine]	− (−: <5000)	> 10	–	–
COc1cc(C)c(Nc2nc(-c3sc(C)nc3C)cs2)cc1OC [Compound 27, N-(4,5-Dimethoxy-2-methylphenyl)-2′,4′-dimethyl-4,5′-bi-1,3-thiazol-2-amine]	− (−: <5000)	> 10	–	–
Cc1ccc(Nc2nc(-c3sc(C)nc3C)cs2)c(C)c1 [Compound 29, N-(2,4-Dimethylphenyl)-2′,4′-dimethyl-4,5′-bi-1,3-thiazol-2-amine]	+ (+: >5000)	–	< 10	3 to 10
Cc1nc(C)c(-c2csc(Nc3ccc(F)cc3C)n2)s1 [Compound 31, N-(4-Fluoro-2-methylphenyl)-2′,4′-dimethyl-4,5′-bi-1,3-thiazol-2-amine]	− (−: <5000)	> 10	–	–
Cc1nc(C)c(-c2csc(Nc3c(C)cccc3F)n2)s1 [Compound 33, N-(2-Fluoro-6-methylphenyl)-2′,4′-dimethyl-4,5′-bi-1,3-thiazol-2-amine]	+ (+: >5000)	–	< 10	3 to 10
COc1ccc(Nc2nc(-c3sc(C)nc3C)cs2)c(C)c1 [Compound 35, N-(4-Methoxy-2-methylphenyl)-2′,4′-dimethyl-4,5′-bi-1,3-thiazol-2-amine]	+ (+: >5000)	> 10	–	–
COc1cc(Nc2nc(-c3sc(C)nc3C)cs2)cc(OC)c1OC [Compound 37, 2′,4′-Dimethyl-N-(3,4,5-trimethoxyphenyl)-4,5′-bi-1,3-thiazol-2-amine]	− (−: <5000)	> 10	–	–
Cc1cc(C)cc(Nc2nc(-c3sc(C)nc3C)cs2)c1 [Compound 39, N-(3,5-Dimethylphenyl)-2′,4′-dimethyl-4,5′-bi-1,3-thiazol-2-amine]	− (−: <5000)	> 10	–	–
Cc1nc(C)c(-c2csc(Nc3c(C)cccc3C)n2)s1 [Compound 41, N-(2,6-Dimethylphenyl)-2′,4′-dimethyl-4,5′-bi-1,3-thiazol-2-amine]	− (−: <5000)	> 10	–	–
Cc1nc(C)c(-c2csc(Nc3ccc(Br)cc3C)n2)s1 [Compound 42, N-(4-Bromo-2-methylphenyl)-2′,4′-dimethyl-4,5′-bi-1,3-thiazol-2-amine]	− (−: <5000)	> 10	–	–
Cc1nc(C)c(-c2csc(Nc3ccc(Br)cc3C(F)(F)F)n2)s1 [Compound 43, N-[4-Bromo-2-(trifluoromethyl)phenyl]-2′,4′-dimethyl-4,5′-bi-1,3-thiazol-2-amine]	+ (+: >5000)	> 10	–	–
CC(=O)c1ccc(Nc2nc(-c3sc(C)nc3C)cs2)cc1 [Compound 44, 1-{4-[(2′,4′-Dimethyl-4,5′-bi-1,3-thiazol-2-yl)amino]phenyl}ethanone]	− (−: <5000)	–	–	> 10
CCc1cccc(CC)c1Nc1nc(-c2sc(C)nc2C)cs1 [Compound 45, N-(2,6-Diethylphenyl)-2′,4′-dimethyl-4,5′-bi-1,3-thiazol-2-amine]	− (−: <5000)	–	< 10	1 to 3
CCc1cccc(C)c1Nc1nc(-c2sc(C)nc2C)cs1 [Compound 47, N-(2-Ethyl-6-methylphenyl)-2′,4′-dimethyl-4,5′-bi-1,3-thiazol-2-amine]	+ (+: >5000)	–	< 10	1 to 3
CCc1cc(Br)ccc1Nc1nc(-c2sc(C)nc2C)cs1 [Compound 49, N-(4-Bromo-2-ethylphenyl)-2′,4′-dimethyl-4,5′-bi-1,3-thiazol-2-amine]	− (−: <5000)	–	< 10	3 to 10
Cc1nc(C)c(-c2csc(Nc3c(C)cc(Cl)cc3C)n2)s1 [Compound 51, N-(4-Chloro-2,6-dimethylphenyl)-2′,4′-dimethyl-4,5′-bi-1,3-thiazol-2-amine]	− (−: <5000)	> 10	–	–
Cc1nc(C)c(-c2csc(Nc3cccc(C)c3C)n2)s1 [Compound 53, N-(2,3-Dimethylphenyl)-2′,4′-dimethyl-4,5′-bi-1,3-thiazol-2-amine]	+ (+: >5000)	> 10	–	–
Cc1nc(C)c(-c2csc(Nc3c(C)cc(F)cc3C)n2)s1 [Compound 55, N-(4-Fluoro-2,6-dimethylphenyl)-2′,4′-dimethyl-4,5′-bi-1,3-thiazol-2-amine]	+ (+: >5000)	> 10	–	–
